# Test results reported in patent US10537558B2 (Bantam Pharmaceutical, LLC, priority 2015, dated 2020).
# System: BJAB cells
# Test: BJAB cell proliferation (Cell Titer Glo)
# Format: cell-based
# Conditions: Homo sapiens, read-out: EC50
# Outline: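 BJAB cells exposed to serially diluted compounds (0.1% DMSO final) for about 72 h at 37 °C. Proliferation read by Cell Titer Glo luminescence as percent of untreated controls; EC50 from non-linear regression of dose-response data.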
row,Structure (SMILES),EC50 [µM]
1,"Cc1nnc(-c2c(C)nn(-c3nc(-c4ccc(Cl)c(Cl)c4)c(SC(C)C)s3)c2C(=O)O)s1 [Compound 82, 1-(4-(3,4-dichlorophenyl)-5-(isopropylthio)thiazol-2-yl)-3-methyl-4-(5-methyl-1,3,4-thiadiazol-2-yl)-1H-pyrazole-5-carboxylic acid]",> 40
2,"Cc1nn(-c2nc(-c3cc(Cl)ccc3F)c(SC(C)C)s2)c(C(=O)O)c1-c1cc(Cl)cc(Cl)c1 [Compound 25, 1-(4-(5-chloro-2-fluorophenyl)-5-(isopropylthio)thiazol-2-yl)-4-(3,5-dichlorophenyl)-3-methyl-1H-pyrazole-5-carboxylic Acid]",1 to 5
3,"COc1cc(-c2c(C)nn(-c3nc(-c4ccc(Cl)c(Cl)c4)c(SC(C)C)s3)c2C(=O)O)cc(C)n1 [Compound 199, 1-(4-(3,4-dichlorophenyl)-5-(isopropylthio)thiazol-2-yl)-4-(2-methoxy-6-methylpyridin-4-yl)-3-methyl-1H-pyrazole-5-carboxylic Acid]",1 to 5
4,"Cc1nn(-c2nc(-c3ccc(Cl)c(Cl)c3)c(SC(C)C)s2)c(C(=O)O)c1Cc1ccccc1NS(=O)(=O)N(C)C [Compound 122, 1-(4-(3,4-dichlorophenyl)-5-(isopropylthio)thiazol-2-yl)-4-(2-(N,N-dimethylsulfamoylamino)benzyl)-3-methyl-1H-pyrazole-5-carboxylic acid]",10 to 25
5,"Cc1nn(-c2nc(-c3ccc(Cl)c(Cl)c3)c(SC(C)C)s2)c(C(=O)O)c1-c1cc(C(F)(F)F)cc(C(F)(F)F)c1 [Compound 60, 4-(3,5-bis(trifluoromethyl)phenyl)-1-(4-(3,4-dichlorophenyl)-5-(isopropylthio)thiazol-2-yl)-3-methyl-1H-pyrazole-5-carboxylic Acid]",1 to 5
6,"Cc1nn(-c2nc(-c3cccc(Cl)c3)c(SC(C)C)s2)c(C(=O)O)c1-c1cccc(F)c1 [Compound 176, 1-(4-(3-chlorophenyl)-5-(isopropylthio)thiazol-2-yl)-4-(3-fluorophenyl)-3-methyl-1H-pyrazole-5-carboxylic Acid]",5 to 10
7,"Cc1nn(-c2nc(-c3ccc(S(C)(=O)=O)cc3)c(SC(C)C)s2)c(C(=O)O)c1-c1cccc(F)c1 [Compound 188, 4-(3-fluorophenyl)-1-(5-(isopropylthio)-4-(4-(methylsulfonyl)phenyl)thiazol-2-yl)-3-methyl-1H-pyrazole-5-carboxylic Acid]",> 40
8,"Cc1nn(-c2nc(-c3ccc(Cl)c(Cl)c3)c(SC(C)C)s2)c(C(=O)N(C)C)c1-c1cc(C(F)(F)F)cc(C(F)(F)F)c1 [Compound 140, 4-(3,5-bis(trifluoromethyl)phenyl)-1-(4-(3,4-dichlorophenyl)-5-(isopropylthio)thiazol-2-yl)-N,N,3-trimethyl-1H-pyrazole-5-carboxamide]",> 40
9,"Cc1nn(-c2nc(-c3ccc(C(F)(F)F)cc3)cs2)c(C(=O)O)c1-c1cccc(F)c1 [Compound 247, 4-(3-fluorophenyl)-3-methyl-1-(4-(4-(trifluoromethyl)phenyl)thiazol-2-yl)-1H-pyrazole-5-carboxylic acid]",10 to 25
10,"CNc1cc(-c2c(C)nn(-c3nc(-c4ccc(Cl)c(Cl)c4)c(SC(C)C)s3)c2C(=O)O)ccn1 [Compound 134, 1-(4-(3,4-dichlorophenyl)-5-(isopropylthio)thiazol-2-yl)-3-methyl-4-(2-(methylamino)pyridin-4-yl)-1H-pyrazole-5-carboxylic acid]",10 to 25
11,"Cc1cc(-c2c(C)nn(-c3nc(-c4ccccc4Cl)c(SC(C)C)s3)c2C(=O)O)cc(C)n1 [Compound 157, 1-(4-(2-chlorophenyl)-5-(isopropylthio)thiazol-2-yl)-4-(2,6-dimethylpyridin-4-yl)-3-methyl-1H-pyrazole-5-carboxylic Acid]",1 to 5
12,"Cc1nn(-c2nc(-c3ccc(C(C)(F)F)cc3)c(SC(C)C)s2)c(C(=O)O)c1-c1cccc(F)c1 [Compound 240, 1-(4-(4-(1,1-difluoroethyl)phenyl)-5-(isopropylthio)thiazol-2-yl)-4-(3-fluorophenyl)-3-methyl-1H-pyrazole-5-carboxylic acid]",1 to 5
13,"CCNC(=O)c1cc(-c2nc(-n3nc(C)c(-c4cccc(F)c4)c3C(=O)O)sc2SC(C)C)ccc1Cl [Compound 243, 1-(4-(4-chloro-3-(ethylcarbamoyl)phenyl)-5-(isopropylthio)thiazol-2-yl)-4-(3-fluorophenyl)-3-methyl-1H-pyrazole-5-carboxylic Acid]",> 40
14,"Cc1nn(-c2nc(-c3ccc(Cl)c(Cl)c3)cs2)c(C(=O)O)c1Cc1ccccc1NS(C)(=O)=O [Compound 8, 1-(4-(3,4-dichlorophenyl)thiazol-2-yl)-3-methyl-4-(2-(methylsulfonamido)benzyl)-1H-pyrazole-5-carboxylic acid]",> 80
15,"Cc1nn(-c2nc(-c3ccc(C(F)(F)F)cc3N)c(SC(C)C)s2)c(C(=O)O)c1-c1cccc(F)c1 [Compound 244, 1-(4-(2-amino-4-(trifluoromethyl)phenyl)-5-(isopropylthio)thiazol-2-yl)-4-(3-fluorophenyl)-3-methyl-1H-pyrazole-5-carboxylic Acid]",1 to 5
16,"Cc1cc(-c2nc(-n3nc(C)c(-c4cccc(F)c4)c3C(=O)O)sc2SC(C)C)n(C)n1 [Compound 211, 1-(4-(1,3-dimethyl-1H-pyrazol-5-yl)-5-(isopropylthio)thiazol-2-yl)-4-(3-fluorophenyl)-3-methyl-1H-pyrazole-5-carboxylic acid]",> 40
17,"Cc1nn(-c2nc(-c3ccc(C(F)(F)F)cc3)c(NC(C)C)s2)c(C(=O)O)c1-c1cccc(F)c1 [Compound 254, 4-(3-fluorophenyl)-1-(5-(isopropylamino)-4-(4-(trifluoromethyl)phenyl)thiazol-2-yl)-3-methyl-1H-pyrazole-5-carboxylic acid]",5 to 10
18,"Cc1nn(-c2nc(-c3ccc(C(F)(F)F)cc3)c(SC(C)C)s2)c(C(=O)O)c1-c1ccc(F)c(F)c1 [Compound 235, 4-(3,4-difluorophenyl)-1-(5-(isopropylthio)-4-(4-(trifluoromethyl)phenyl)thiazol-2-yl)-3-methyl-1H-pyrazole-5-carboxylic acid]",< 1
19,"COc1ccc(-c2nc(-n3nc(C)c(-c4cccc(F)c4)c3C(=O)O)sc2SC(C)C)cc1 [Compound 187, 4-(3-fluorophenyl)-1-(5-(isopropylthio)-4-(4-methoxyphenyl)thiazol-2-yl)-3-methyl-1H-pyrazole-5-carboxylic Acid]",10 to 25
20,"Cc1nn(-c2nc(-c3cc(F)c(Cl)c(F)c3)c(SC(C)C)s2)c(C(=O)O)c1-c1cccc(F)c1 [Compound 193, 1-(4-(4-chloro-3,5-difluorophenyl)-5-(isopropylthio)thiazol-2-yl)-4-(3-fluorophenyl)-3-methyl-1H-pyrazole-5-carboxylic Acid]",1 to 5
21,"CCn1cc(-c2c(C)nn(-c3nc(-c4ccc(Cl)c(Cl)c4)c(SC(C)C)s3)c2C(=O)O)cn1 [Compound 129, 2-(4-(3,4-dichlorophenyl)-5-(isopropylthio)thiazol-2-yl)-2′-ethyl-5-methyl-4,4′-bi(2H-pyrazole)-3-carboxylic Acid]",5 to 10
22,"Cc1nn(-c2nc(-c3ccc(Cl)c(Cl)c3)c(SC(C)C)s2)c(C(=O)O)c1-c1cnn(C)c1 [Compound 66, 2-(4-(3,4-dichlorophenyl)-5-(isopropylthio)thiazol-2-yl)-2′,5-dimethyl-4,4′-bi(2H-pyrazole)-3-carboxylic acid]",5 to 10
